Test results: US20240034730A1, “PYRAZOLO DERIVATIVES AS HUMAN DIHYDROOROTATE DEHYDROGENASE (HDHODH) INHIBITORS FOR USE AS ANTIVIRALS” (DRUG DISCOVERY AND CLINIC S.R.L., priority 2020, published 2024)
Read-outs that look alike come from different tables or passages of the source.

Assays:
in vitro [1] = details: African green monkey
[2] = pH 7.4
Experimental: (§1) Lipophilicity. The shake flask method was chosen to determinate logD7.4.
(§2) The partition coefficients between n-octanol and PBS at pH 7.4 (log D^7.4) were obtained using the shake-flask technique at room temperature. In the shake-flask experiments, 50 mM of phosphate buffered saline pH 7.4 was used as the aqueous phase. The organic (n-octanol) and aqueous phases were mutually saturated by shaking for 4 h. The compounds were solubilized in the buffered aqueous phase at the highest concentration compatible with solubility and appropriate amounts of n-octanol were added. The two phases were shaken for about 20 min, by which time the partitioning equilibrium of solutes had been reached, and then centrifuged (10000 rpm, 10 min).

HSV-2 = test: Plaque reduction assay (PRA), HSV-2 in Vero cells; format: cell-based, Herpes simplex virus 2; details: Human alphaherpesvirus 2, Vero, read-out: EC50 HSV-2
HSV-1 = test: Plaque reduction assay (PRA), HSV-1 in Vero cells; format: cell-based, Herpes simplex virus 1; details: Human alphaherpesvirus 1, Vero
hCoV-OC43 [3] = test: Focus forming reduction assay (FFRA), hCoV-OC43 in HCT-8 cells, single concentration; format: cell-based; details: Betacoronavirus 1, OC43, HCT-8, 72 h, HCT8 cells, 72 h p.i., vs DMSO control, read-out: % Decrease of hCoV-OC43 replication in presence of inhibitor 0.1 μM
[4] = Solubility assay at pH 7.4 in PBS; format: physicochemical; details: pH 7.4
Experimental: Solubility assay at pH 7.4. […] The samples were shaken in an orbital shaker at 25° C. for 24 h. These suspensions were filtered through a PTFE 0.45 μm filter (VWR), and the solutions were chromatographically analyzed using a Perkin Elmer Ultra High Performance Liquid Chromatography (UHPLC) instrument, equipped with a reverse-phase (RP) C18 Phenomenex column (2.1×100 mm, 1.7 μm particle size). Gradient elution: the ratio of eluents A and B (0.1% trifluoroacetic acid in water and 0.1% trifluoroacetic acid in acetonitrile, respectively) changed linearly from 60% A-40% B to 0% A-100% B in 12 minutes, followed by 5 minutes in isocratic elution at 100% of eluent B and then 4 minutes in equilibration elution to reset the starting conditions. The flow rate was 0.5 mL/min. Standard injection volumes were either 2 or 4 μl for poorly soluble compounds. The detection system was a Perkin Elmer diode-array-detector. The wavelengths that were monitored for each compound were defined according to the compound's own absorption spectrum. Solubility, expressed as μM concentration of the saturated solution, was calculated via interpolation with external calibration curves that were obtained with solutions of each compound in acetonitrile.

recombinant hDHODH = recombinant hDHODH (Homo sapiens (Human), UniProt Q02127); test: hDHODH inhibition assay (DCIP reduction); format: biochemical; details: recombinant GST-hDHODH; means ± SE of three independent experiments; read-out: hDHODH IC50 ± SE
[5] = log D (pH 7.4), shake-flask n-octanol/PBS; details: n-octanol/PBS pH 7.4, shake flask
Experimental: as §1, §2

[6] = Cytotoxicity on MDCK cells (Cell Titer Glo); format: cell-based, Canine; details: dog, read-out: CC50 (Influenza A row)
hCoV-OC43 [7] = test: Anti-hCoV-OC43 activity in HCT-8 cells, concentration-dependent
RSV [8] = test: Plaque reduction assay (PRA), RSV in HEp-2 cells; format: cell-based; details: human respiratory syncytial virus, HEp-2, read-out: EC50 RSV
in vitro [9] = format: cell-based; details: human
hCoV-229E = test: Anti-hCoV-229E activity in MRC5 fibroblasts (CPE, CellTiter-Glo); format: cell-based
[10] = test system: Influenza A virus (A/Puerto Rico/8/34); test: microbe, parasite or virus in culture; format: cell-based; details: PRA, MDCK cells
SARS-CoV-2 = details: literature value (refs 15, 16); read-out: EC50 SARS-CoV-2 from literature; cited from earlier work
[11] = literature value (refs 15, 16); read-out: CC50 from literature (SARS-CoV-2); cited from earlier work
RSV [12] = details: literature value (ref 17); read-out: EC50 RSV from literature; cited from earlier work

Sequence of recombinant hDHODH (Q02127 whole entry): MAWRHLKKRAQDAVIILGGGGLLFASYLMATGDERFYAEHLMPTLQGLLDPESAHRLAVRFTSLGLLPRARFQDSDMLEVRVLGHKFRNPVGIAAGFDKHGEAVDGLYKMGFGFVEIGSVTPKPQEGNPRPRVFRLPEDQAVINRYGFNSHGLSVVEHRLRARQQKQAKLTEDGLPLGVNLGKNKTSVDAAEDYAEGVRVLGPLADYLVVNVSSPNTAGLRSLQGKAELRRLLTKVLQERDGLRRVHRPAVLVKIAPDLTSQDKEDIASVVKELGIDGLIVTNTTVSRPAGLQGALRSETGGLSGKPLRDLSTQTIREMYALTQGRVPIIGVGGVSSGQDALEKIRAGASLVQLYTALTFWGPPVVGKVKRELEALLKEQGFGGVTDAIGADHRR

What does the source list for `CCCOc1cccc(-c2c(F)c(F)c(NC(=O)c3c(O)nn4ccccc34)c(F)c2F)c1` [Compound 17, 2-Hydroxy-N-(2,3,5,6-tetrafluoro-3′-propoxy-[1,1′-biphenyl]-4-yl) pyrazolo[1,5-a]pyridine-3-carboxamide]?
CC50 at 3 days (in vitro [1]): 117000 nM; Log D7.4 ± SD [2]: 3.28 ± 0.12; EC50 (HSV-2): 110 nM; EC50 (HSV-1; read-out: EC50 HSV-1): 90 nM

For `O=C(Nc1c(F)c(F)c(-c2ccccc2)c(F)c1F)c1c(O)nn2c1CCCC2` [Compound 5, 2-Hydroxy-N-(2,3,5,6-tetrafluoro-[1,1′-biphenyl]-4-yl)-4,5,6,7-tetrahydropyrazolo[1,5-a]pyridine-3-carboxamide], which inhibition at 0.1 µM (hCoV-OC43 [3]) is on record?
Its inhibition at 0.1 µM is 31.3%.

What about the “Log D7.4 ± SD” value [2] of the same molecule?
The value was 2.36 ± 0.02.

What about the “Solubility in PBS” value [4] of the same molecule?
Its value is “<LOD”.

What about the IC50 (recombinant hDHODH) of the same molecule?
Its IC50 is 5.8 ± 0.4 nM.

Which IC50 (recombinant hDHODH) does the source give for `CC(F)(F)COc1cccc(-c2c(F)c(F)c(NC(=O)c3c(O)nn4ccccc34)c(F)c2F)c1` [Compound 40, N-(3′-(2,2-difluoropropoxy)-2,3,5,6-tetrafluoro-[1,1′-biphenyl]-4-yl)-2-hydroxypyrazolo[1,5-a]pyridine-3-carboxamide] here?
The IC50 was 1.48 ± 0.2 nM.

And the melting point?
Its melting point is 229.6 to 231.7 °C.

What does the source list for `O=C(Nc1ccc2c(c1)ncn2-c1ccccc1)c1c(O)nn2ccccc12` [Compound 21, 2-Hydroxy-N-(1-phenyl-1H-benzo[d]imidazol-5-yl)pyrazolo[1,5-a]pyridine-3-carboxamide]?
Log D7.4 ± SD [5]: 2.55 ± 0.04; IC50 (recombinant hDHODH): > 10000 nM; melting point: 133.6 to 135.9 °C

Which results are given for `Cc1c(-c2ccc(-c3ccccc3F)cc2)nc2ccc(F)cc2c1C(=O)O` [Brequinar]?
CC50 at 3 days (in vitro [1]): 100000 nM; CC50 at 72 h [6]: 5000 nM; EC50 (HSV-2): 1770 nM; EC50 (hCoV-OC43 [7]; read-out: EC50 hCoV-OC43): 42.7 nM; EC50 (hCoV-OC43 [7]; read-out: EC50 hCoV-OC43, listed as brequinar): 22 ± 3 nM; Log D7.4 ± SD [5]: 1.83 ± 0.02; EC50 (HSV-1; read-out: EC50 HSV-1): 530 nM; EC50 (RSV [8]): 15 nM; CC50 at 72 h (in vitro [9]): 168000 nM; EC50 (hCoV-229E; Human coronavirus 229E, MRC5, MRC5 fibroblasts): 42.7 ± 3 nM; EC50 (hCoV-229E; MRC5 fibroblasts): 22 nM; EC50 [10]: 760 nM

With `O=c1nc(NO)ccn1[C@@H]1O[C@H](CO)[C@@H](O)[C@H]1O` [EIDD-1931] as the molecule, how does the EC50 (SARS-CoV-2) read?
Its EC50 is 300 nM.

And the CC50 [11]?
The CC50 was over 10000 nM.

What about the EC50 (RSV [12]) of the same molecule?
The EC50 was 690 nM.

For `Nc1nc2c(ncn2COCCO)c(=O)[nH]1` [ACV], which EC50 (HSV-1; read-out: EC50 anti-HSV of reference drug) is on record?
Its EC50 is 180 nM.

Which “Log D7.4 ± SD” value [5] does the source give for `O=C(Nc1ccc2c(c1)nnn2-c1ccccc1)c1c(O)nn2ccccc12` [Compound 22, 2-Hydroxy-N-(1-phenyl-1H-benzo[d][1,2,3]triazol-5-yl)pyrazolo[1,5-a]pyridine-3-carboxamide] here?
The value was 1.59 ± 0.03.

What about the IC50 (recombinant hDHODH) of the same molecule?
Its IC50 is 7200 ± 1600 nM.

What about the melting point of the same molecule?
Its melting point is 133.6 to 135.9 °C.

For `CCC(CC)COC(=O)[C@H](C)N[P@](=O)(OC[C@H]1O[C@@](C#N)(c2ccc3c(N)ncnn23)[C@H](O)[C@@H]1O)Oc1ccccc1` [Remdesivir], which EC50 (hCoV-OC43 [7]; read-out: EC50 hCoV-OC43) is on record?
The EC50 was 147 ± 34 nM.

And the CC50 [11]?
Its CC50 is over 100000 nM.

What about the EC50 (hCoV-229E; Human coronavirus 229E, MRC5 fibroblasts) of the same molecule?
Its EC50 is 34.8 ± 5 nM.

What does the source list for `O=C(Nc1ccc2c(ccn2-c2ccccc2)c1)c1c(O)nn2ccccc12` [Compound 20, 2-Hydroxy-N-(1-phenyl-1H-indol-5-yl)pyrazolo[1,5-a]pyridine-3-carboxamide]?
Log D7.4 ± SD [5]: 2.89 ± 0.05; IC50 (recombinant hDHODH): 2760 ± 386 nM; melting point: 133.6 to 135.9 °C
